# Data published in ChEMBL document CHEMBL1141041, “Discovery of halogenated eurypamide B analogues as inhibitors of lipid droplet accumulation in macrophages” (Bioorg Med Chem Lett, 2005).
# Assay: Inhibition of lipid droplets accumulation in mouse peritoneal macrophages as a model of macrophage-derived foam-cell formation
# Assay type: functional
row,SMILES,IC50
1,C[C@@H](OCc1ccccc1)C1NC(=O)[C@@H](NC(=O)OC(C)(C)C)Cc2ccc(O)c(c2)Oc2ccc(cc2)C[C@@H](C(=O)O)NC1=O (stereo partly specified),3.2 µM
2,COC(=O)[C@@H]1Cc2ccc(cc2)Oc2cc(ccc2O)C[C@H](N)C(=O)NC([C@@H](C)OCc2ccccc2)C(=O)N1 (stereo partly specified),> 12.1 µM
3,C[C@@H](O)C1NC(=O)[C@@H](NC(=O)OC(C)(C)C)Cc2ccc(O)c(c2)Oc2ccc(cc2)C[C@@H](C(=O)O)NC1=O (stereo partly specified),> 12.1 µM
4,C[C@@H](O)[C@@H]1NC(=O)[C@@H](N)Cc2ccc(O)c(c2)Oc2ccc(cc2)C[C@@H](C(=O)O)NC1=O,> 22.6 µM
5,COC(=O)[C@@H]1Cc2ccc(cc2)Oc2cc(ccc2O)C[C@H](N)C(=O)N[C@@H]([C@@H](C)O)C(=O)N1,> 13.5 µM
6,C[C@@H](OCc1ccccc1)C1NC(=O)[C@@H](NC(=O)Oc2ccccc2)Cc2ccc(O)c(c2)Oc2ccc(cc2)C[C@@H](C(=O)O)NC1=O (stereo partly specified),3.1 µM
